Measured values: publication PMC8892251, “An Enhanced Hybrid Screening Approach to Identify Potent Inhibitors for the SARS-CoV-2 Main Protease From the NCI Compound Library” (Frontiers in Chemistry, 2022)
pIC50: −log10 of the molar value. Like-named read-outs stand apart in the source and are kept apart here.

Experiments:
[1] = target: SARS-CoV-2 Mpro (Severe acute respiratory syndrome coronavirus 2, UniProt P0DTD1); test: biochemical
[2] = target: PLpro (Severe acute respiratory syndrome coronavirus 2, UniProt P0DTD1); test: IC50 test against PLpro (selectivity check for quinones); format: biochemical, SARS-CoV-2; conditions: Supplementary Figure S4; for specificity of Mpro inhibition: conclusion from PLpro counter-test; for selectivity Mpro versus PLpro: quinones tested on PLpro

Row | SMILES | pIC50 ([1]; IC50) | specificity of Mpro inhibition [2] | selectivity Mpro versus PLpro [2] | pIC50 ([1]; Mpro, Figure 5, triplicate experiments, read-out: IC50) | pIC50 ([1]; Mpro, read-out: IC50)
1 | CC1=C(N=[N+]=[N-])C(=O)C(C)=C(N=[N+]=[N-])C1=O [Compound 88] | 6.14 | specifically inhibit the activity of Mpro | more selective on Mpro than PLpro |  | 
2 | O=C1C=CC(=O)c2c1ncc1c2nc2sccn21 [Compound 110] |  | specifically inhibit the activity of Mpro | more selective on Mpro than PLpro | 6.15 | 6.15
3 | O=C1C=C/C(=N\c2nc3c4ccccc4c4ccccc4c3[nH]2)c2ccccc21 [Compound 112] | 5.77 |  | more selective on Mpro than PLpro |  | 
